Experimental data from patent publication US9981972B2, “N-hydroxy bicyclic hydantoin carbamates as tools for identification of serine hydrolase targets” (ABIDE THERAPEUTICS, INC., priority 2014, dated 2018).

Experiments:
Assay type in all cases: biochemical
[1] = system: mouse LYPLA1/2 (quantified together); experiment: IC50 by gel-based competitive ABPP in vitro, mouse brain membrane proteome; conditions: mouse LYPLA1/2, in vitro; read-out: mLYPLA1/2 in vitro potency (IC50)
Method: (§1) Assay Overview: The purpose of this assay was to determine IC50 values of powder samples of test compounds for enzyme of interest activity, and anti-targets in a complex proteomic lysate using a gel-based competitive ABPP assay. In this assay, a complex proteome was incubated with test compound followed by reaction with FP-Rh and SDS-PAGE analysis as described above.
(§2) Protocol Summary: Soluble HeLa cell proteome (50 μL reaction volume, 1 mg/mL in DPBS) or mouse brain membrane proteome (50 μL reaction volume, 1 mg/mL in DPBS) was treated with varying concentrations of test compound (1 μL of a 50× stock in DMSO) for 30 minutes at 37° C. FP-Rh (1 μL of 50× stock in DMSO) was added to a final concentration of 2 μM. The reaction was incubated for 30 minutes at 25° C., quenched with 16 μL 4×SDS-PAGE loading buffer (reducing), separated by SDS-PAGE and visualized by in-gel fluorescent scanning. The percentage activity remaining was determined by measuring the integrated optical density of the enzymes of interest, and anti-target bands relative to a DMSO-only (no compound) control. IC50 values were determined from dose-response curves from three replicates at each inhibitor concentration: 1, 10, 100, 1000, 10000 nM and 0.01, 0.1, 1, 10, 100, 1000, 10000, 50000, and 100000 nM.

ABHD6 = target: T1, ABHD6 (Mus musculus, UniProt Q8R2Y0); experiment: Gel-based competitive ABPP in vitro, mouse brain membrane proteome
T1 construct: from tissue; host or cells: mouse brain, membrane fraction
T1 sequence (Q8R2Y0 1-336): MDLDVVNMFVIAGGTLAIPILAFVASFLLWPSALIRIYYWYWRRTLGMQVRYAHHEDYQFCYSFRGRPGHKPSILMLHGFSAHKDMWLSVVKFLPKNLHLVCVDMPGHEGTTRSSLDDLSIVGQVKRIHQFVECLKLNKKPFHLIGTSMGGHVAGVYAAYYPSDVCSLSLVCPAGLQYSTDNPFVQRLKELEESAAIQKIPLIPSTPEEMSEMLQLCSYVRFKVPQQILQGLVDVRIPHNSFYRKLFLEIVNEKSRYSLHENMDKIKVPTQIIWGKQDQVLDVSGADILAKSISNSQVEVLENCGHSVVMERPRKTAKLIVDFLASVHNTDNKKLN
Method: (§3) Assay Overview: The purpose of this assay was to determine whether test compounds can inhibit LYPLA1 and LYPLA2 in a complex proteomic lysate and to assess anti-target inhibition using a competitive activity-based proteomic profiling (ABPP) assay. In this assay, a complex proteome endogenously expressing LYPLA1/2 was incubated with test compound followed by reaction with a rhodamine-conjugated fluorophosphonate (FP-Rh) serine-hydrolase specific activity-based probe. The reaction products were separated by SDS-PAGE and visualized in-gel using a flatbed fluorescence scanner. The percentage activity remaining was determined by measuring the integrated optical density of the bands. […] Percent inhibition was calculated relative to a DMSO (no compound) control.
(§4) Protocol Summary: Mouse brain membrane proteome (50 μL reaction volume, 1 mg/mL in DPBS) was treated with 0.1-100 μM test compound (1 μL of a 50× stock in DMSO) for 30 minutes at 37° C. FP-Rh (1 μL of 50× stock in DMSO, Thermo #88318) was added to a final concentration of 2 μM. The reactions were incubated for 30 minutes at 25° C., quenched with 16 μL 4×SDS-PAGE loading buffer (reducing), separated by SDS-PAGE and visualized by in-gel fluorescent scanning. The percentage activity remaining was determined by measuring the integrated optical density of the bands relative to a DMSO-only (no compound) control. Assay Cutoff: Compounds with ≥50% inhibition of targets at 1 μM test compound concentration were considered active.
as §1, §2

FAAH = target: T2, FAAH (Mus musculus, UniProt O08914); experiment: as above; conditions: 10 μM, mouse brain (mem) proteome
T2 construct: from tissue; host or cells: mouse brain, membrane fraction
T2 sequence (O08914 1-579): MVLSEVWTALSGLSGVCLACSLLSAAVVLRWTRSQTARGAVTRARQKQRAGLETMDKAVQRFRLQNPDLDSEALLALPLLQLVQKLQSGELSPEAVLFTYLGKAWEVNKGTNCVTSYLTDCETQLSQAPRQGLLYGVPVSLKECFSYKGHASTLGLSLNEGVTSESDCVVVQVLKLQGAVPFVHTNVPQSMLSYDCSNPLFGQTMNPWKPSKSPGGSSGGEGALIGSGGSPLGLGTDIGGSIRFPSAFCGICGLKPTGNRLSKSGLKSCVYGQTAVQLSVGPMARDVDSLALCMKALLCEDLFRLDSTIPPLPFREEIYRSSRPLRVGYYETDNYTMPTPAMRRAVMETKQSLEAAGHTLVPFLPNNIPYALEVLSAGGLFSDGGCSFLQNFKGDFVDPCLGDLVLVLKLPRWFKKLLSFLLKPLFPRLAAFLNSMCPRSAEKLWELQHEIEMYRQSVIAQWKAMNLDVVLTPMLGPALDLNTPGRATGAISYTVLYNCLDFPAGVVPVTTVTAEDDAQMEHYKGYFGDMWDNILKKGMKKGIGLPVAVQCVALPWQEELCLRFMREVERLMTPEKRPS
Method: as §3, §4, §1, §2

IC50 [1]: 97 nM
ABHD6 in vitro enzyme activity, % @ 1 μM (ABHD6; 1 μM, mouse brain (mem) proteome): 100% @
IC50 (ABHD6; mouse ABHD6, in vitro, read-out: mABHD6 in vitro potency (IC50)): 2.5 nM
FAAH in vitro enzyme activity, % @ 10 μM (FAAH): 0% @
SMILES: O=C(ON1C(=O)[C@H]2CN(C(=O)N3CCOCC3)CCN2C1=O)N1CCC(CCc2ccc(Cl)cc2)CC1 [Compound 51, (R)-7-(morpholine-4-carbonyl)-1,3-dioxohexahydroimidazo[1,5-a]pyrazin-2(3H)-yl 4-(4-chloro-phenethyl)piperidine-1-carboxylate]
